Key:
[1] = system: human umbilical vein endothelial cell (HUVEC); experiment: HUVEC proliferation in vitro; assay type: cell-based; conditions: compared among 73 factors tested
Description: (§1) Methods: ProCell(oxytocin) was assessed for ability to stimulate human umbilical vein endothelial cell (HUVEC) proliferation in vitro. Selected compounds where tested for ability to stimulate colony and tube formation. In vivo angiogenic activity was tested by administration of bone marrow mononuclear cells alone, or ProCell-treated bone marrow mononuclear cells in the hindlimb ischemia assay.

critical limb ischemia = experiment: Pilot study in patients with critical limb ischemia; assay type: in vivo, human patients
Description: Three patients suffering from critical limb ischemia were recruited. Patients matched the following inclusion criteria. a. Unreconstructable arterial disease was determined by a vascular surgeon who is not participating in the study. Unreconstructable arterial disease is defined by atherocclusive lesions within the arterial tree of the extremity that due to extent or morphology are not amenable to surgical bypass or PTCA and stenting. b. Objective evidence of severe peripheral arterial disease includes an ankle brachial index (ABI) of less than 0.55, and/or a resting toe brachial index (TBI) of […]. c. Patients must be competent to give consent. d. No history of malignant disease except for nonmelanoma skin cancer, no suspicious findings on chest x-ray, mammography (women over age 35), Papanicolaou smear (women over age 40), a normal fecal occult blood (over age 50) and a normal prostate specific antigen (men over age 45). Patients were injected with 10(8) bone-marrow mononuclear cells/aspirate, and administration of ProCell(oxytocin) was performed concurrently. Injections were performed using 10 million cells per injection, with 10 injections locally at the area of failed perfusion in a 10 cm×10 cm area in the gastrocnemius muscle. Ankle Brachial index was measured by comparing the ankle and brachial pressure.

[2] = system: bone marrow mononuclear cells / endothelial progenitors; experiment: Endothelial colony and tube formation of bone marrow cells; assay type: cell-based, human; conditions: for Endothelial colony formation: bone marrow cells incubated in ProCell, semi-solid media with endothelial differentiation cocktail
Description: as §1
Bone marrow was aspirated from patients 3 patients 18-25 years old (Young Patients) and 3 patients 65-80 years old (Old Patients). The cells were either incubated in saline for 30 minutes or incubated in ProCell(oxytocin). Bone marrow cells were evaluated. Evaluation of colony formation was performed by plating mononuclear cells in semi-solid media containing endothelial differentiation cocktail. Number of colonies where counted.

[3] = system: experimental autoimmune encephalomyelitis (EAE); experiment: SJL/J model of experimental autoimmune encephalomyelitis (EAE), syngeneic bone marrow cells cultured in ProCell; assay type: in vivo
Description: (§2) Methods: Immune modulatory activity of ProCell (oxytocin) was assessed by treatment of bone marrow mononuclear cells with ProCell (oxytocin) and subsequently assayed for proliferative ability and cytokine in response to CD3/CD28 stimulation. The concentration and incubation time of ProCell (oxytocin) identified for maximal immune modulatory effect was used to treat syngeneic bone marrow cells prior to implantation in the SJL/J model of EAE. Cell transplant experiments involving transfer of mesenchymal stem cells (CD105), monocytes (CD14), T cells (CD3) and B cells (CD20) where performed to identify the cellular population responsible for disease protective effect.

[4] = system: CD3/CD28 stimulated T cell proliferation; experiment: CD3/CD28 stimulation of ProCell (oxytocin) treated bone marrow mononuclear cells: proliferation and cytokines; assay type: cell-based
Description: as §2

[5] = system: allogeneic peripheral blood mononuclear cells (mixed lymphocyte reaction); experiment: Mixed lymphocyte reaction (MLR) with ProCell (oxytocin) treated cord blood CD14 monocytes; assay type: cell-based, human; conditions: for Proliferation in MLR: ProCell treated CD14 monocytes added to MLR, tritiated thymidine; for Treg (FoxP3) generation in MLR: flow cytometry
Description: Methods: UCBMNC where treated with ProCell (oxytocin) and monocytic populations where extracted by CD14 Magnetic Activated Cell Separation (MACS). Immune modulatory activity of isolated cells was examined by coculture with allogeneic lymphocytes, as well as added to ongoing mixed lymphocyte reaction (MLR). Proliferation and cytokine production was assessed. Furthermore generation of T regulatory cells was examined by flow cytometry for FoxP3 and ability to suppress T cell proliferation stimulated by CD3/CD28.
Cryopreserved human umbilical cord mononuclear cells (UB-MNCs) were obtained from All Cells, LLC. Immediately prior to the experiment the UBMNC s were thawed in a 37° C. water bath for about one minute and then washed twice in 10 ml PBS with 100 μl DNase (Sigma #D4527-40KU, 1 mg/ml). The number of viable cells was determined using the trypan blue exclusion method. Cell viability generally ranged from 80% to 90%.
Using magnetic antibody cell sorting (MACS), UB-MNCs were selected CD14+ monocytes, the MNC were centrifuged at 1000 rpm×10 minutes, the supernatant aspirated and the cells resuspended in 80 μl of buffer per […] and incubated at 4° C. for 15 min. Antibody conjugated paramagnetic microbeads CD14 labeled beads (cat #130-050-201, Miltenyi Biotechwere used to enrich for monocytes. After incubation, the cells were washed with buffer and centrifuged at 1000 rpm for 10 min. The cells were resuspended in 500 μl of buffer, then passed through a magnetic column that trapped the paramagnetic beads and the cells they were attached to (AutoMacs Pro). The magnetic field was disengaged and the cells collected.
CD14 cells were cultured in ProCell (oxytocin) at various concentrations in Opti-Mem media with 10% fetal calf serum for 1 hour at 37 Celsius. Cells where subsequently washed in Phosphate Buffered Saline and plated in vitro. Assessment of Treg generation was performed in mixed lymphocyte reaction with allogeneic peripheral blood mononuclear cells. The culture lasted either 48 or 72 hours and various concentrations of ProCell (oxytocin) treated cord blood CD14 expressing cells where added to the responding PBMC. Evaluation of proliferation was performed using the tritiated thymidine method, and cytokine production was measured using ELISA.
Additionally, the stimulation of FoxP3 expression was performed by flow cytometry using fixation and permeabiliization method.

hindlimb ischemia = experiment: Hindlimb ischemia assay (femoral artery ligation), limb survival; assay type: in vivo, mice
Description: Methods: ProCell(oxytocin) was assessed for ability to stimulate human umbilical vein endothelial cell (HUVEC) proliferation in vitro. Selected compounds where tested for ability to stimulate colony and tube formation. In vivo angiogenic activity was tested by administration of bone marrow mononuclear cells alone, or ProCell-treated bone marrow mononuclear cells in the hindlimb ischemia assay. Bone marrow mononuclear cells where obtained from syngeneic mice. Cells where administered at a concentration of 1 million cells per leg intramuscularly on days 0, 2, and 4, Oxytocin was injected in the same area on the same days at a concentration of 0.1 IU per mouse. Injury was induced by ligation of the femoral artery and neurotrophic injury was induced. Limb survival was quantified.

[6] = bone marrow cells with concurrent ProCell, patients
[7] = ProCell treated monocytes, ELISA

With `CC[C@H](C)[C@@H]1NC(=O)[C@H](Cc2ccc(O)cc2)NC(=O)[C@@H](N)CSSC[C@@H](C(=O)N2CCC[C@H]2C(=O)N[C@@H](CC(C)C)C(=O)NCC(N)=O)NC(=O)[C@H](CC(N)=O)NC(=O)[C@H](CCC(N)=O)NC1=O` [ProCell, Oxytocin] the “Stimulation of HUVEC proliferation” value [1] was “highest stimulatory activity”, the “Amputation during the study period” value (critical limb ischemia; 10(8) bone-marrow mononuclear cells/aspirate with concurrent ProCell) was “No patients reported amputation” and the “Critical limb ischemia, before and after photographs” value (critical limb ischemia; bone marrow cells with ProCell) was “improving critical limb ischemia”. The Ankle brachial index (critical limb ischemia; [6]) was “improving”, the Ankle pressure (critical limb ischemia; [6]) was “improving” and the Endothelial colony formation [2] was “increases endothelial colony formation”. For the same compound, the Endothelial colony formation ([2]; listed as ProCell(oxytocin)) was “potent induction”, the Tube formation ([2]; endothelial progenitors and non-purified bone marrow mononuclear cells) was “potent induction” and the “Relapse of EAE” value ([3]; animals treated with ProCell cultured cells) was “accelerated reduction of relapse”. The “Inhibition of EAE” value ([3]; animals treated with ProCell cultured syngeneic bone marrow cells) was “Dose dependent inhibition of EAE”, the FoxP3 expressing cells ([3]; correlated with disease inhibition) was “increased FoxP3 expressing cells” and the IFN-gamma production ([4]; CD3/CD28 stimulation) was “inhibition”. The IL-10 production ([4]; CD3/CD28 stimulation) was “upregulation”, the IL-12 production ([4]; CD3/CD28 stimulation) was “inhibition” and the TGF-beta production ([4]; CD3/CD28 stimulation) was “upregulation”. For the same compound, the “CD3/CD28 stimulated T cell proliferation” value ([4]; bone marrow mononuclear cells treated with ProCell) was “inhibitory effect”, the “Proliferation in MLR” value [5] was “suppress proliferation” and the “Proliferation in MLR” value ([5]; listed as ProCell (oxytocin)) was “actively inhibited ongoing MLR”. The “TGF-beta in MLR” value ([5]; ProCell treated monocytes) was “augmentation”, the “IFN-gamma in MLR” value [5, 7] was “suppress IFN-Gamma” and the “IL-10 in MLR” value [5, 7] was “enhances IL-10”. For the same compound, the “IL-10 in MLR” value ([5]; ProCell treated monocytes, ELISA, listed as ProCell (oxytocin)) was “augmentation”, the “Treg (FoxP3) generation in MLR” value ([5]; ProCell treated monocytes) was “enhances Treg (FoxP3)” and the “Treg (FoxP3) generation in MLR” value ([5]; ProCell treated monocytes, listed as ProCell (oxytocin)) was “in vitro generation of active T regulatory cells was observed”. The “Stimulation of allogeneic T cell proliferation” value ([5]; coculture of ProCell cultured CD14 cells with allogeneic lymphocytes) was “did not stimulate allogeneic T cell proliferation”, the Limb loss (hindlimb ischemia; ProCell incubated bone marrow cells) was “prevents limb loss” and the Limb loss (hindlimb ischemia; ProCell incubated bone marrow cells, listed as ProCell(oxytocin)) was “prevent limb loss”. For the same compound, the “Neoangiogenesis in hindlimb ischemia model” value (hindlimb ischemia; bone marrow mononuclear cells/aspirate incubated with ProCell) was “enhanced ability to stimulate neoangiogenesis” and the Limb loss (hindlimb ischemia; localized separate intramuscular administration of ProCell and bone marrow mononuclear cells/aspirate) was “prevention of limb loss”.

Source: patent publication US20240024365A1, “POTENTIATION OF BONE MARROW CELL ACTIVITY BY COADMINISTRATION WITH OXYTOCIN” (CREATIVE MEDICAL TECHNOLOGIES, INC., priority 2022, published 2024)
